“Also recorded” adds a separate entry of the source.
Legend:
peripheral CD4^+ T cells = experiment: Peptide injection into thymectomized TCR^TgTCRα^−H2-M^−Ii^− mice; type: in vivo, mouse; conditions: two weeks after injection
Source text: Since the selecting peptide is an agonist, in a specific embodiment of the present invention the observed phenomenon results from the expansion of a small number of peripheral transgenic CD4^+ T cells rather than from induced positive selection. To test this possibility, two types of experiments have been performed. In the first experiment, the PCC TgTCRα^−H-2M^−Ii^− mice were thymectomized and then injected with the PCC50V54A peptide. Two weeks after injection, these mice were sacrificed and the number of peripheral CD4^+ T cells was counted. […] After 10 days, recipient mice were sacrificed and the presence of transgenic CD4^+ T cells in the transplanted thymus and lymph nodes was determined by FACS analysis. […]
Since the selecting peptide is an agonist, one could argue that the observed phenomenon results from the expansion of a small number of peripheral transgenic CD4^+ T cells rather than from induced positive selection (Martin & Bevan, 1997). […] Two weeks after injection, the mice were sacrificed and the number of peripheral CD4^+ T cells was counted. […] After 10 days, recipient mice were sacrificed and the presence of transgenic CD4^+ T cells in the transplanted thymus and host lymph nodes was determined by FACS analysis. […]

B16 melanoma cells = experiment: Protection against B16 melanoma transfected with A^bPCC50V54A-YFP in TCR^Tgα^−H-2M^−Ii^− mice; type: in vivo, mouse
Procedure: Protection of a mouse melanoma model. Peptide selected CD4^+ T cells are shown to be functional and protect mice from melanoma tumor cells. To determine if peptide selected T lymphocytes are able to mount an effective immune response in vivo the ability of peptide-selected CD4^+ cells to protect mice from melanoma was assessed. Melanoma B16-F1 was transfected with constructs encoding the A^bβPCC50V54A chain tagged with yellow fluorescent protein (YFP) and A^bα chain. These transfectants weakly stimulated TCR^Tgα^− CD4^+ cells from wild type mice. TCR^Tgα^−H2-M^−Ii^− mice received subcutaneous injection of B16 melanoma transfectants. At the same time, half of these mice also received selecting agonist peptide. After 12 days, animals were sacrificed, and the phenotype of tumor cells and peripheral CD4^+ T cells in draining lymph nodes was examined. As shown in FIGS. 16A-E, only mice that received selecting peptide accumulated peripheral CD4^+ T cells. These cells responded to tumor as assessed by upregulation of CD69 and downregulation of CD62L. Most importantly, tumors in mice that received a selecting peptide were much smaller (4-6 times) and were composed of melanoma cells without surface expression of antigenic complex (only about ¼ of cells were YFP^+ compared to more then ¾ in mice not treated with the selecting peptide). […]

transgenic CD4^+ T cells = experiment: Selection of transgenic CD4^+ T cells in TCR^TgTCRα^−→H-2M^−Ii^− radiation chimeras; conditions: mouse, in vivo
Source text: Also disclosed by the inventors is the development of transgenic CD4^+ T cells in chimeras made by reconstituting H-2M^−Ii^− mice with the bone marrow from TCR^TgTCRα^− mice (TCR^TgTCRα^−→H-2M^−Ii^− chimeras). The development of thymocytes in such chimeras is arrested at the CD4^+CD8^+ stage despite the presence of selecting wild type A^b/self-peptide complexes on bone marrow-derived dendritic cells. […] This in vivo model relates that, in contrast to the reaggregation cultures (Yastumo et al., 2000), radioresistant thymic epithelial cells are required to provide an agonist signal that induces thymocyte differentiation towards CD4^+ lineage in vivo.

Sequence: AEGFSYTVANKAKGIT [PCC50V54A, analog of pigeon cytochrome C peptide PCC(43-58)]
- total number of lymph node cells (peripheral CD4^+ T cells; 50 μg): 11.5×10^6±1.6
- number of peripheral CD4 transgenic T cells (peripheral CD4^+ T cells; versus non-injected thymectomized controls): very low and did not increase; also recorded: very few CD4^+ peripheral T cells
- tumor mass / size relative to mice without selecting peptide (B16 melanoma cells; 20 μg i.p.): 4-6 times smaller
- expression of A^bPCC50V54A-YFP on remaining tumor cells (B16 melanoma cells; more then ¾ YFP^+ in mice not treated): do not express A^bPCC50V54A-YFP
- appearance / positive selection of mature CD4^+ T cells in chimeras (transgenic CD4^+ T cells): appeared only after injection

— US20030021796A1, “Method of enhancing T cell immunity by selection of antigen specific T cells” (priority 2001, published 2003)
